This note sets out measurements from PubChem BioAssay (NCI).

Some test systems named below: A549 NSCLC; CCRF-CEM leukemia; HCT-116 colon; HCT-15 colon; MALME-3M melanoma; OVCAR-3 ovarian; OVCAR-8 ovarian; SF-268 CNS; SF-295 CNS; SK-OV-3 ovarian; SN12C renal; SR leukemia; TK-10 renal.
Holding throughout (assay): NCI-60 cell line screen, 48 h

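A five-concentration, 48-hour dose response in 96-well plates underlies each endpoint, interpolated linearly between surrounding concentrations. TGI: total growth inhibition.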

In the case of `N#CC(=C1CCCCC1)c1nc2ccccc2o1`, the TGI with A549 NSCLC, in the assay with CCRF-CEM leukemia, in the assay on HCT-116 colon, in the assay on HCT-15 colon, in the assay with MALME-3M melanoma and in the assay with OVCAR-3 ovarian was over 100 µM each time. The TGI in the assay on OVCAR-8 ovarian, in the assay with SF-268 CNS, with SF-295 CNS, in the assay with SK-OV-3 ovarian, in the assay with SN12C renal and in the assay with SR leukemia was over 100 µM throughout. Besides, the TGI in the assay on TK-10 renal was over 100 µM.

For the compound `CCCC(=O)O[C@H]1C=C2C[C@@]34SS[C@]5(CC6=C[C@H](OC(C)=O)[C@@H]7O[C@@H]7[C@H]6N5C3=O)C(=O)N4[C@@H]2[C@H]2O[C@H]21`, the TGI was 1.68 µM in the assay on A549 NSCLC; 8.41 µM in the assay with CCRF-CEM leukemia; 0.0285 µM in the assay on HCT-116 colon; 1.43 µM in the assay with HCT-15 colon; 0.0239 µM with MALME-3M melanoma; 0.0314 µM with OVCAR-3 ovarian. The TGI came out at 0.907 µM with OVCAR-8 ovarian; 0.119 µM with SF-268 CNS; 1.35 µM in the assay on SF-295 CNS; 3.21 µM in the assay on SK-OV-3 ovarian; 0.0111 µM in the assay with SN12C renal; 50 µM with SR leukemia. In the assay on TK-10 renal, this compound gave a TGI of 0.24 µM.

With `CC(=O)Oc1cc2c(c3ncccc13)OC(C)(C)C2`, the TGI in the assay with A549 NSCLC is 27.4 µM; with CCRF-CEM leukemia, 28.7 µM; with HCT-116 colon, 27.5 µM; with HCT-15 colon, 46.5 µM; in the assay on MALME-3M melanoma, 23.4 µM; in the assay with OVCAR-3 ovarian it was 55 µM. In addition, the TGI with OVCAR-8 ovarian is 74.8 µM; in the assay with SF-268 CNS it was 25.9 µM; in the assay with SF-295 CNS, 36.1 µM; in the assay on SK-OV-3 ovarian it was over 100 µM; in the assay on SN12C renal, 25.9 µM; with SR leukemia it was 6 µM. The compound also gave a TGI with TK-10 renal of 26.3 µM.
